Data: patent US20260224588A1, “BENZODIAZEPINONE-DERIVED INHIBITORS OF EGFR AND HER2” (The Research Foundation for the State University of New York, priority 2023, published 2026)

Assays:
ABL1-nonphosphorylated = biological target: T1, ABL1-nonphosphorylated (Homo sapiens, UniProt P00519); assay: KINOMEscan; format: binding; settings: 1 μM of compound 4; read-out: POC
T1 construct: purchased Eurofins DiscoverX Corporation

AKT1 = AKT1 (Homo sapiens, UniProt P31749); assay: KINOMEscan; format: binding; settings: 1 μM of compound 4; read-out: POC
AMPK-alpha1 = AMPK-alpha1 (Homo sapiens, UniProt Q13131); assay: KINOMEscan; format: binding; settings: 1 μM of compound 4; read-out: POC
AURKC = AURKC (Homo sapiens, UniProt Q9UQB9); assay: KINOMEscan; format: binding; settings: 1 μM of compound 4; read-out: POC
BIKE = BIKE (Homo sapiens, UniProt Q9NSY1); assay: KINOMEscan; format: binding; settings: 1 μM of compound 4; read-out: POC
CAMK1 = CAMK1 (Homo sapiens, UniProt Q14012); assay: KINOMEscan; format: binding; settings: 1 μM of compound 4; read-out: POC
CDC2L2 = CDC2L2 (Homo sapiens, UniProt Q9UQ88); assay: KINOMEscan; format: binding; settings: 1 μM of compound 4; read-out: POC
CDK4-cyclinD3 = CDK4-cyclinD3 (Homo sapiens, UniProt P11802); assay: KINOMEscan; format: binding; settings: 1 μM of compound 4; read-out: POC
EPHA4 = biological target: T2, EPHA4 (Homo sapiens, UniProt P54764); assay: KINOMEscan; format: binding; settings: 1 μM of compound 4; read-out: POC
T2 construct: purchased Eurofins DiscoverX (KINOMEscan service)

HPK1 = biological target: T3, HPK1 (Homo sapiens, UniProt Q92918); assay: KINOMEscan; format: binding; settings: 1 μM of compound 4; read-out: POC
T3 construct: purchased Eurofins DiscoverX Corporation

IRAK1 = IRAK1 (Homo sapiens, UniProt P51617); assay: KINOMEscan; format: binding; settings: 1 μM of compound 4; read-out: POC
[1] = biological target: JAK1(JH1domain-catalytic) (Homo sapiens, UniProt P23458); assay: KINOMEscan; format: binding; settings: 1 μM of compound 4; read-out: POC
JNK1 = JNK1 (Homo sapiens, UniProt P45983); assay: KINOMEscan; format: binding; settings: 1 μM of compound 4; read-out: POC
MAP3K3 = MAP3K3 (Homo sapiens, UniProt Q99759); assay: KINOMEscan; format: binding; settings: 1 μM of compound 4; read-out: POC
MST1 = MST1 (Homo sapiens, UniProt Q13043); assay: KINOMEscan; format: binding; settings: 1 μM of compound 4; read-out: POC
NEK10 = NEK10 (Homo sapiens, UniProt Q6ZWH5); assay: KINOMEscan; format: binding; settings: 1 μM of compound 4; read-out: POC
p38-alpha = biological target: T4, p38-alpha (Homo sapiens, UniProt Q16539); assay: KINOMEscan; format: binding; settings: 1 μM of compound 4; read-out: POC
T4 construct: purchased Eurofins DiscoverX Corporation (KINOMEscan)

p38-beta = biological target: T5, p38-beta (Homo sapiens, UniProt Q15759); assay: KINOMEscan; format: binding; settings: 1 μM of compound 4; read-out: POC
T5 construct: purchased Eurofins DiscoverX Corporation (KINOMEscan)

PIK3CD = PIK3CD (Homo sapiens, UniProt O00329); assay: KINOMEscan; format: binding; settings: 1 μM of compound 4; read-out: POC
PIM2 = PIM2 (Homo sapiens, UniProt Q9P1W9); assay: KINOMEscan; format: binding; settings: 1 μM of compound 4; read-out: POC
PIP5K1A = PIP5K1A (Homo sapiens, UniProt Q99755); assay: KINOMEscan; format: binding; settings: 1 μM of compound 4; read-out: POC
PIP5K2B = PIP5K2B (Homo sapiens, UniProt P78356); assay: KINOMEscan; format: binding; settings: 1 μM of compound 4; read-out: POC
PKAC-alpha = PKAC-alpha (Homo sapiens, UniProt P17612); assay: KINOMEscan; format: binding; settings: 1 μM of compound 4; read-out: POC
RIOK1 = biological target: T6, RIOK1 (Homo sapiens, UniProt Q9BRS2); assay: KINOMEscan; format: binding; settings: 1 μM of compound 4; read-out: POC
T6 construct: purchased Eurofins DiscoverX Corporation (KINOMEscan screening service)

STK16 = biological target: T7, STK16 (Homo sapiens, UniProt O75716); assay: KINOMEscan; format: binding; settings: 1 μM of compound 4; read-out: POC
T7 construct: purchased Eurofins DiscoverX (KINOMEscan service)

TBK1 = biological target: T8, TBK1 (Homo sapiens, UniProt Q9UHD2); assay: KINOMEscan; format: binding; settings: 1 μM of compound 4; read-out: POC
T8 construct: purchased Eurofins DiscoverX Corporation

TSSK3 = biological target: T9, TSSK3 (Homo sapiens, UniProt Q96PN8); assay: KINOMEscan; format: binding; settings: 1 μM of compound 4; read-out: POC
T9 construct: purchased Eurofins DiscoverX Corporation

TTK = biological target: T10, TTK (Homo sapiens, UniProt P33981); assay: KINOMEscan; format: binding; settings: 1 μM of compound 4; read-out: POC
T10 construct: purchased Eurofins DiscoverX Corporation

TXK = biological target: T11, TXK (Homo sapiens, UniProt P42681); assay: KINOMEscan; format: binding; settings: 1 μM of compound 4; read-out: POC
T11 construct: purchased Eurofins DiscoverX

YES = biological target: T12, YES (Homo sapiens, UniProt P07947); assay: KINOMEscan; format: binding; settings: 1 μM of compound 4; read-out: POC
T12 construct: purchased Eurofins DiscoverX

EGFR(L858R) = EGFR(L858R) (Homo sapiens, UniProt P00533, L858R); assay: Time-dependent kinase inhibition assay (Sox-based substrate); format: biochemical; parameters: EGFR [L858R], cytoplasmic domain (669-1210), GST-tagged, Carna; purchased Carna 08-510
Procedure: Time-dependent Kinase Inhibition Assays. Biochemical assays were performed with commercially available EGFR WT, cytoplasmic domain (669-1210), GST-tagged, Carna (Cat #/Lot #: 08-115/21CBS-0127H), EGFR [T790M/L858R] and EGFR [L858R], cytoplasmic domain (669-1210), GST-tagged, Carna (Cat #/Lot #: 08-510/12CBS-0765M). […] BSA was not included in this experiment to prevent interference with irreversible inhibitor characterization via off-target binding. All reactions were run for 240 minutes at 30° C. Time-dependent fluorescence from the Sox-based substrate was monitored in PerkinElmer ProxiPlate-384 Plus, white shallow well microplates (Cat. #6008280) Biotek Synergy Neo 2 microplate reader with excitation (360 nm) and emission (485 nm) wavelengths. 2 was dosed between 0 and 10 μM in 24-point curves with 1.5-fold dilutions. Fluorescence, determined with identical reactions but lacking purified enzyme or crude cell lysate was subtracted from the total fluorescence signal for each time point, with both determined in duplicate, to obtain corrected relative fluorescence units (RFU). Corrected RFU values then were plotted vs. time and the reaction velocity for the first ~40 min (initial reaction rates) were determined from the slope using GraphPad Prism (La Jolla, CA) with units of RFU/min.

Chain of EGFR(L858R) (P00533 669-1210 L858R): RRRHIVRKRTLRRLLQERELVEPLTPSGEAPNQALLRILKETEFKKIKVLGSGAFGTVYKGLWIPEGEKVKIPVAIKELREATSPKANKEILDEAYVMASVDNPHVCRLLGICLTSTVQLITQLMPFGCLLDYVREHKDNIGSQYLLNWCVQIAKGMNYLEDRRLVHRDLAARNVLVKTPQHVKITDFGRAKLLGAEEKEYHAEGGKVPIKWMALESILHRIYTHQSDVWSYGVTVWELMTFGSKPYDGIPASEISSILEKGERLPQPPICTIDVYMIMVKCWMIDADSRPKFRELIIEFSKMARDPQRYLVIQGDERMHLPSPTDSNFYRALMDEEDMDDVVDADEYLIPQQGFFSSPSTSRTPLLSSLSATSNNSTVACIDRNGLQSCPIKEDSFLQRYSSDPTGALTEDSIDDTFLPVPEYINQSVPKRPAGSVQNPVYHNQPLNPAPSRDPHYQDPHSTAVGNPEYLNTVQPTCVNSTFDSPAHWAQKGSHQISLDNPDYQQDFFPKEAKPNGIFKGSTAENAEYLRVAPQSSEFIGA
Chain of MST1 (Q13043 whole entry): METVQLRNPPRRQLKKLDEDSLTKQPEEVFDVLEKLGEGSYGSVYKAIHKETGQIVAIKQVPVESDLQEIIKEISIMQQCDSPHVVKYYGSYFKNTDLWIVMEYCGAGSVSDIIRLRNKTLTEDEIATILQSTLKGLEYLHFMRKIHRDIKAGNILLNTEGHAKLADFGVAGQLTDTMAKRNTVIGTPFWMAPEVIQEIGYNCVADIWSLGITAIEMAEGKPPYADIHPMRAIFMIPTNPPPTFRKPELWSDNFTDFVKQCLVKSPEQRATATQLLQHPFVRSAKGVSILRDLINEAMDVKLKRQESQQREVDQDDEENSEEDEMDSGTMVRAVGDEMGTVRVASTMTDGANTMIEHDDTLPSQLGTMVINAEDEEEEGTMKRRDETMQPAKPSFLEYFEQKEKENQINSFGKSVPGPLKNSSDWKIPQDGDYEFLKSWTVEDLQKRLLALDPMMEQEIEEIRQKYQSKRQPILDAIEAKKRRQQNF
Chain of JAK1(JH1domain-catalytic) (P23458 875-1153 limits assumed): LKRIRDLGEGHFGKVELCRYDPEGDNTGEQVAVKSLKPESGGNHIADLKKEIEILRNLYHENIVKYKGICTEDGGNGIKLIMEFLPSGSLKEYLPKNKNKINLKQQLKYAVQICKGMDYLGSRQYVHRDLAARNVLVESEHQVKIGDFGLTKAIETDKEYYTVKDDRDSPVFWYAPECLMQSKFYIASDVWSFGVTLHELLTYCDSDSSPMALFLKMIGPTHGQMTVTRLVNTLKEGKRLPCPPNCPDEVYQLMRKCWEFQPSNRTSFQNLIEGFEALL
Chain of PIP5K2B (P78356 whole entry): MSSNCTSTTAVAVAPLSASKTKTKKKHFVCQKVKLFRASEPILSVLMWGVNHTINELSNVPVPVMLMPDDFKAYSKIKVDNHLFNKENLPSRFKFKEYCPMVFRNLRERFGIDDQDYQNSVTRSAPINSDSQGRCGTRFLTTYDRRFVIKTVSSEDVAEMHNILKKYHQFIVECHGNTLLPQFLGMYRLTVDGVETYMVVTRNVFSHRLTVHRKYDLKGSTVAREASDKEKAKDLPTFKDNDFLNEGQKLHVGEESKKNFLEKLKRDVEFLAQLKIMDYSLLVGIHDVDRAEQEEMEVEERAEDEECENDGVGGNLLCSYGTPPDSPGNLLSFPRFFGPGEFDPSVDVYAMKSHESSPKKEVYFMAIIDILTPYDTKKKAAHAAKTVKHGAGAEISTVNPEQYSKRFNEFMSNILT
T11 sequence (P42681 whole entry): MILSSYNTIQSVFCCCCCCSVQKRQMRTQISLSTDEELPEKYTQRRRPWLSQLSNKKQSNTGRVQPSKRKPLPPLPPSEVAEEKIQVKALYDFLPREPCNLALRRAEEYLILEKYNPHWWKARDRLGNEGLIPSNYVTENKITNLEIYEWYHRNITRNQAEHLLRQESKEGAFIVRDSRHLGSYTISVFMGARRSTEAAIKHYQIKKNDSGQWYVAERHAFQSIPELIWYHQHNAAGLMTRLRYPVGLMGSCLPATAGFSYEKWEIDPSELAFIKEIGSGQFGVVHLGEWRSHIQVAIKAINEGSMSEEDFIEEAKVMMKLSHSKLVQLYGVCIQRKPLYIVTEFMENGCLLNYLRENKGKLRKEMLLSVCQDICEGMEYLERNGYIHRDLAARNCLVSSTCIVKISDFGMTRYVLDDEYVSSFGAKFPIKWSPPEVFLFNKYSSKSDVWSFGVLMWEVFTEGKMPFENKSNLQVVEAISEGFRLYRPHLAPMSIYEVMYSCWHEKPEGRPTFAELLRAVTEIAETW
T10 sequence (P33981 whole entry): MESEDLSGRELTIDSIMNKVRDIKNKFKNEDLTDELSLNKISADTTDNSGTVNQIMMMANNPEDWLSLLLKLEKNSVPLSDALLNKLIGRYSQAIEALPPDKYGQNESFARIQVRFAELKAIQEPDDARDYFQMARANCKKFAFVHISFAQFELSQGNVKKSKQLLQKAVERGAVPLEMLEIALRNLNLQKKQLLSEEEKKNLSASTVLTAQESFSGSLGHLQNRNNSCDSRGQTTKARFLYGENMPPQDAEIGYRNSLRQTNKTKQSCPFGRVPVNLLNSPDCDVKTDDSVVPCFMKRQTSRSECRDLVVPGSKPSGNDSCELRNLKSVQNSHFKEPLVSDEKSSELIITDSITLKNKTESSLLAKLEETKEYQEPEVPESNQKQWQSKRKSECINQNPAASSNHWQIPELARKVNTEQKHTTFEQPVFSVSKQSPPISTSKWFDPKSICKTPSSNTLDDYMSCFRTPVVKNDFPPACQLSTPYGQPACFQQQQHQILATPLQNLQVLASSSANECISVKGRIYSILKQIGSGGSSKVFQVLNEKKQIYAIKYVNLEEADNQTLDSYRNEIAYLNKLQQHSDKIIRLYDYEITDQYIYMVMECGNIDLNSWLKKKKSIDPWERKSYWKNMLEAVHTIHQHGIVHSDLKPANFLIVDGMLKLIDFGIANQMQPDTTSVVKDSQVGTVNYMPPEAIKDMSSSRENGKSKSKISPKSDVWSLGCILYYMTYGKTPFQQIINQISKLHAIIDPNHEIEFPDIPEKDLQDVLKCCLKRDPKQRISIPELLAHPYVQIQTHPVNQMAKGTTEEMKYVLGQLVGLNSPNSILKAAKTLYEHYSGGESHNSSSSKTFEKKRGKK
Chain of MAP3K3 (Q99759 whole entry): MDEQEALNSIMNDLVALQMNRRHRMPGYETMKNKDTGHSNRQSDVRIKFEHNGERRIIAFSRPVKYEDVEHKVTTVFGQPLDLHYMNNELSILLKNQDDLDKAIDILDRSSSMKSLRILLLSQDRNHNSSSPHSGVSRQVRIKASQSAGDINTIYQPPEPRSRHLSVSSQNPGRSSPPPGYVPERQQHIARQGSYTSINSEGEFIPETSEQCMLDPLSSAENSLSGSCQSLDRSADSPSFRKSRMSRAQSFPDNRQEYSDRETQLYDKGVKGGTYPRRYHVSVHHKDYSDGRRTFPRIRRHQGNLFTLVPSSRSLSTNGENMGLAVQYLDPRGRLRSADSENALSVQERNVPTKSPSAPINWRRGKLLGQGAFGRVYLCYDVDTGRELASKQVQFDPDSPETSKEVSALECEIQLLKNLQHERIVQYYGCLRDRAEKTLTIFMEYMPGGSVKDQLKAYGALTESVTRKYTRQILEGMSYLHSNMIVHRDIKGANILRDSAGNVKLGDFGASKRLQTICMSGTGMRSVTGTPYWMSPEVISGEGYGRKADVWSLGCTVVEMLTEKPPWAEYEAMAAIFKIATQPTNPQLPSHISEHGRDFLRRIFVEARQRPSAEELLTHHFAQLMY
T1 sequence (P00519 whole entry): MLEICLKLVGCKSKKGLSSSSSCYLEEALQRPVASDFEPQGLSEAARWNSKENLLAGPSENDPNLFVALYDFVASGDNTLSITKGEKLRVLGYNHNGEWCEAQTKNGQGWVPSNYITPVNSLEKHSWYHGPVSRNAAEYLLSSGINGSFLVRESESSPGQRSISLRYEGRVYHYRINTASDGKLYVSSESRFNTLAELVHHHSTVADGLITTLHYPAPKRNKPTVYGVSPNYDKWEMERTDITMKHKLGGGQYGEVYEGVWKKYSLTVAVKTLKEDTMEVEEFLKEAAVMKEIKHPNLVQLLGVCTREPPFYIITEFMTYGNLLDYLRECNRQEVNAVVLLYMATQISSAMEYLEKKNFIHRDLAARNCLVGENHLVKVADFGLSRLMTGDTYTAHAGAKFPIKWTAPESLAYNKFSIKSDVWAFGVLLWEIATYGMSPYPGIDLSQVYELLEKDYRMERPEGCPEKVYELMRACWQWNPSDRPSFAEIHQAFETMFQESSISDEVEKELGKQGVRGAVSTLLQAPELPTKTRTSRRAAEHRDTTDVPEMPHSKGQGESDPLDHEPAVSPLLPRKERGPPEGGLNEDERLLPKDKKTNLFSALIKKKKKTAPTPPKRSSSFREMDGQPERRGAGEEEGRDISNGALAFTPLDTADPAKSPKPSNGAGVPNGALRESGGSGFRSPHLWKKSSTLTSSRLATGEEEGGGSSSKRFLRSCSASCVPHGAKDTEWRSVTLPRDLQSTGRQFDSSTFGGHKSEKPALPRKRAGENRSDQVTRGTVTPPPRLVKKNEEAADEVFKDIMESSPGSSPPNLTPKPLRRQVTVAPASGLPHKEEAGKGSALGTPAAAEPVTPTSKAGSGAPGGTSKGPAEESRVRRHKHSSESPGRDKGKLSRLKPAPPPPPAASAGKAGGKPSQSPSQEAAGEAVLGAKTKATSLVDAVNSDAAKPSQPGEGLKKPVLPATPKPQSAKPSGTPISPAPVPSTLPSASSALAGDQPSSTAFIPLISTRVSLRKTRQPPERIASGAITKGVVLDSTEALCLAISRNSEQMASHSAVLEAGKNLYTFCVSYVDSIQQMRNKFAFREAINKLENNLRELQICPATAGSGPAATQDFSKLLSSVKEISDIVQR

C=CC(=O)Nc1ccc(OC)c(Nc2cc(-c3[nH]c(CC)nc3-c3cccc(NC(=O)c4cccc5c4NC(=O)c4ccccc4N5)c3)ccn2)c1 [Compound 4, N-(3-(5-(2-((5-Acrylamido-2-methoxyphenyl)amino)pyridin-4-yl)-2-ethyl-1H-imidazol-4-yl)phenyl)-11-oxo-10,11-dihydro-5H-dibenzo[b,e][1,4]diazepine-9-carboxamide]
remaining binding at 1 µM (ABL1-nonphosphorylated): 100%
remaining binding at 1 µM (AKT1): 89%
remaining binding at 1 µM (AMPK-alpha1): 81%
remaining binding at 1 µM (AURKC): 100%
remaining binding at 1 µM (BIKE): 100%
remaining binding at 1 µM (CAMK1): 81%
remaining binding at 1 µM (CDC2L2): 91%
remaining binding at 1 µM (CDK4-cyclinD3): 49%
remaining binding at 1 µM (EPHA4): 95%
remaining binding at 1 µM (HPK1): 45%
remaining binding at 1 µM (IRAK1): 85%
remaining binding at 1 µM [1]: 91%
remaining binding at 1 µM (JNK1): 85%
remaining binding at 1 µM (MAP3K3): 51%
remaining binding at 1 µM (MST1): 6%
remaining binding at 1 µM (NEK10): 86%
remaining binding at 1 µM (p38-alpha): 46%
remaining binding at 1 µM (p38-beta): 59%
remaining binding at 1 µM (PIK3CD): 71%
remaining binding at 1 µM (PIM2): 88%
remaining binding at 1 µM (PIP5K1A): 75%
remaining binding at 1 µM (PIP5K2B): 100%
remaining binding at 1 µM (PKAC-alpha): 100%
remaining binding at 1 µM (RIOK1): 100%
remaining binding at 1 µM (STK16): 100%
remaining binding at 1 µM (TBK1): 95%
remaining binding at 1 µM (TSSK3): 100%
remaining binding at 1 µM (TTK): 72%
remaining binding at 1 µM (TXK): 42%
remaining binding at 1 µM (YES): 20%
kinact (EGFR(L858R)): 0.00867 s⁻¹
Ki (EGFR(L858R); read-out: KI, LR): 610 ± 30 nM
kinact/KI (EGFR(L858R); read-out: kinact/KI, LR): 14100 ± 300 M⁻¹ s⁻¹
